Reference: patent publication US10577363B2, “Substituted piperidine compounds” (EPIZYME, INC., priority 2014, dated 2020)

Tests used:
SMYD3 [1] = biological target: T1, SMYD3 (Homo sapiens (Human), UniProt Q9H7B4); assay: SMYD3 biochemical assay (SPA, 3H-SAM methylation of MEKK2 protein substrate); settings: average of n = 1 to n = 50; read-out: SMYD3 Biochem IC50
Summary of the method: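 Full-length native human SMYD3 (E. coli-expressed, tags removed) preincubated with compounds 30 min at room temperature, then reaction started with 3H-SAM and GST-tagged MEKK2 protein in 25 mM Tris-Cl pH 8.0, 1 mM TCEP, 0.005% BSG, 0.005% Tween 20. Quenched with unlabelled SAM (100 uM final); 3H-MEKK2 counted by SPA.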

SMYD3 [2] = biological target: T1, SMYD3; assay: SMYD3 cell assay (Trimethyl-MEKK2 In-Cell Western in 293T/17 cells); type: cell-based; settings: average of n = 1 to n = 50; read-out: SMYD3 Cell IC50
Summary of the method: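 In-Cell Western ratio of trimethyl-Lys260 MEKK2 to anti-flag signal; percent inhibition from DMSO and maximum-inhibition controls, IC50 by non-linear regression, triplicates.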

T1 sequence (Q9H7B4 whole entry): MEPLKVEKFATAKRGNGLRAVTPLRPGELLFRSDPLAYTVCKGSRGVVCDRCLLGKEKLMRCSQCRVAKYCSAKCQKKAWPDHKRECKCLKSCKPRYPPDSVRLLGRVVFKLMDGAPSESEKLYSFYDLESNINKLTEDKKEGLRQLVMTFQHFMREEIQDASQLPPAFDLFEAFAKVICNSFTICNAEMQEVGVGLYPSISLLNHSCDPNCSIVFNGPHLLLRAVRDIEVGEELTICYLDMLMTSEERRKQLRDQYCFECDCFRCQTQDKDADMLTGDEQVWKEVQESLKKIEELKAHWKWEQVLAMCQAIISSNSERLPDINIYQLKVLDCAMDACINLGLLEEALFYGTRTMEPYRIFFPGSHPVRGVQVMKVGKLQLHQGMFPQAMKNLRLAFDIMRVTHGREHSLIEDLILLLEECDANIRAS

Row | SMILES | IC50 (SMYD3 [1]) [µM] | IC50 (SMYD3 [2]) [µM]
1 | O=C(N[C@H]1C[C@H]2CC[C@@H](C1)N2S(=O)(=O)CCN1CCC(N2CCCCC2)C1)c1cc(C2CC2)on1 (stereo partly drawn) [compound 663, 5-cyclopropyl-N-((1R,3r,5S)-8-((2-(3-(piperidin-1-yl)pyrrolidin-1-yl)ethyl)sulfonyl)-8-azabicyclo[3.2.1]octan-3-yl)isoxazole-3-carboxamide] | 0.0851 | 0.67
2 | C[C@@H]1C[C@H](NC(=O)c2cc(C3CC3)on2)CCN1C(=O)c1ccc([C@@H](C)N)cc1 [compound 664, N-((2R,4R)-1-(4-((R)-1-aminoethyl)benzoyl)-2-methylpiperidin-4-yl)-5-cyclopropylisoxazole-3-carboxamide] | 0.0866 | 1.07
3 | C[C@@H]1CNCCN1S(=O)(=O)N1CC[C@H](NC(=O)c2cc(C3CC3)on2)C[C@@H]1C [compound 666, 5-cyclopropyl-N-((2S,4S)-2-methyl-1-(((R)-2-methylpiperazin-1-yl)sulfonyl)piperidin-4-yl)isoxazole-3-carboxamide] | 0.0906 | 0.801
4 | C[C@H]1CN(S(=O)(=O)NC2CCN(C)CC2)CC[C@H]1NC(=O)c1cc(C2CC2)on1 [compound 667, 5-cyclopropyl-N-((3S,4R)-3-methyl-1-(N-(1-methylpiperidin-4-yl)sulfamoyl)piperidin-4-yl)isoxazole-3-carboxamide] | 0.0969 | 0.731
5 | C[C@H]1CN(S(=O)(=O)N(C)C2CCN(C)CC2)CC[C@H]1NC(=O)c1cc(C2CC2)on1 [compound 668, 5-cyclopropyl-N-((3S,4R)-3-methyl-1-(N-methyl-N-(1-methylpiperidin-4-yl)sulfamoyl)piperidin-4-yl)isoxazole-3-carboxamide] | 0.101 | 0.576
6 | C[C@@H]1CN(S(=O)(=O)N2CC[C@H](NC(=O)c3cc(C4CC4)on3)C[C@@H]2C)CCN1C [compound 669, 5-cyclopropyl-N-((2S,4S)-1-(((R)-3,4-dimethylpiperazin-1-yl)sulfonyl)-2-methylpiperidin-4-yl)isoxazole-3-carboxamide] | 0.102 | 0.398
7 | O=C(N[C@H]1C[C@H]2CC[C@@H](C1)N2S(=O)(=O)CCCNCCN1CCOCC1)c1cc(C2CC2)on1 [compound 670, 5-cyclopropyl-N-((1R,3r,5S)-8-((3-((2-morpholinoethyl)amino)propyl)sulfonyl)-8-azabicyclo[3.2.1]octan-3-yl)isoxazole-3-carboxamide] | 0.103 | 0.886
8 | C[C@@H]1C[C@H](NC(=O)c2cc(C3CC3)on2)CCN1C(=O)c1ccc(OCCN)cc1 [compound 671, N-((2R,4R)-1-(4-(2-aminoethoxy)benzoyl)-2-methylpiperidin-4-yl)-5-cyclopropylisoxazole-3-carboxamide] | 0.104 | 5.58
9 | CN(C)CCS(=O)(=O)N1[C@@H]2CC[C@H]1C[C@@H](NC(=O)c1cc(C3CC3)on1)C2 [compound 672, 5-cyclopropyl-N-((1R,3r,5S)-8-((2-(dimethylamino)ethyl)sulfonyl)-8-azabicyclo[3.2.1]octan-3-yl)isoxazole-3-carboxamide] | 0.104 | 0.388
10 | O=C(N[C@H]1C[C@H]2CCC[C@@H](C1)N2S(=O)(=O)CC1CCNCC1)c1cc(C2CC2)on1 [compound 673, 5-cyclopropyl-N-((1R,3r,5S)-9-((piperidin-4-ylmethyl)sulfonyl)-9-azabicyclo[3.3.1]nonan-3-yl)isoxazole-3-carboxamide] | 0.106 | 1.68
11 | C[C@H]1C[C@@H](NC(=O)c2cc(C3CC3)on2)CCN1S(=O)(=O)N(C)C1CCN(C)CC1 [compound 674, 5-cyclopropyl-N-((2S,4S)-2-methyl-1-(N-methyl-N-(1-methylpiperidin-4-yl)sulfamoyl)piperidin-4-yl)isoxazole-3-carboxamide] | 0.108 | 1.08
12 | CNCc1ccc(C(=O)N2CC[C@@H](NC(=O)c3cc(C4CC4)on3)C[C@H]2C)cc1 [compound 675, 5-cyclopropyl-N-((2R,4R)-2-methyl-1-(4-((methylamino)methyl)benzoyl)piperidin-4-yl)isoxazole-3-carboxamide] | 0.111 | 1.37
13 | C[C@@H]1C[C@H](NC(=O)c2cc(C3CC3)on2)CCN1S(=O)(=O)CC1CCN(CCN2CCOCC2)CC1 [compound 676, 5-cyclopropyl-N-((2R,4R)-2-methyl-1-(((1-(2-morpholinoethyl)piperidin-4-yl)methyl)sulfonyl)piperidin-4-yl)isoxazole-3-carboxamide] | 0.111 | > 10
14 | C[C@H]1C[C@@H](NC(=O)c2cc(C3CC3)on2)CCN1S(=O)(=O)N(C)CCN [compound 677, N-((2S,4S)-1-(N-(2-aminoethyl)-N-methylsulfamoyl)-2-methylpiperidin-4-yl)-5-cyclopropylisoxazole-3-carboxamide] | 0.111 | 5.31
15 | CN(C1CCNCC1)S(=O)(=O)N1[C@@H]2CCC[C@H]1C[C@@H](NC(=O)c1cc(C3CC3)on1)C2 [compound 678] | 0.113 | 2.66
16 | C[C@H](N)c1ccc(C(=O)N2CC[C@@H](NC(=O)c3cc(C4CC4)on3)C[C@H]2C)cc1 [compound 679, N-((2R,4R)-1-(4-((S)-1-aminoethyl)benzoyl)-2-methylpiperidin-4-yl)-5-cyclopropylisoxazole-3-carboxamide] | 0.113 | 1.3
17 | C[C@H]1C[C@@H](NC(=O)c2cc(C3CC3)on2)CCN1S(=O)(=O)N1CCN(C)C(C)(C)C1 [compound 680, 5-cyclopropyl-N-((2S,4S)-2-methyl-1-((3,3,4-trimethylpiperazin-1-yl)sulfonyl)piperidin-4-yl)isoxazole-3-carboxamide] | 0.119 | 0.592
18 | CN1CCC(CS(=O)(=O)N2CC[C@H](NC(=O)c3cc(C4CC4)on3)C[C@@H]2Cc2ccccc2)CC1 [compound 682, N-((2S,4S)-2-benzyl-1-(((1-methylpiperidin-4-yl)methyl)sulfonyl)piperidin-4-yl)-5-cyclopropylisoxazole-3-carboxamide] | 0.121 | 1.25
19 | C[C@@H]1C[C@H](NC(=O)c2cc(C3CC3)on2)CCN1C(=O)c1ccc(N2CCNCC2)nc1 [compound 683, 5-cyclopropyl-N-((2R,4R)-2-methyl-1-(6-(piperazin-1-yl)nicotinoyl)piperidin-4-yl)isoxazole-3-carboxamide] | 0.122 | 1.78
20 | CN1CCN(S(=O)(=O)N2[C@@H]3CC[C@H]2C[C@@H](NC(=O)c2cc(C4CC4)on2)C3)CC1CO (stereo partly drawn) [compound 684, 5-cyclopropyl-N-((1R,3r,5S)-8-((3-(hydroxymethyl)-4-methylpiperazin-1-yl)sulfonyl)-8-azabicyclo[3.2.1]octan-3-yl)isoxazole-3-carboxamide] | 0.122 | 0.923
21 | C[C@@H]1CN(S(=O)(=O)N2CCN(C)CC2)[C@H](C)C[C@@H]1NC(=O)c1cc(C2CC2)on1 [compound 685, 5-cyclopropyl-N-((2R,4S,5R)-2,5-dimethyl-1-((4-methylpiperazin-1-yl)sulfonyl)piperidin-4-yl)isoxazole-3-carboxamide] | 0.124 | 0.254
22 | C[C@@H]1C[C@H](NC(=O)c2cc(C3CC3)on2)CCN1C(=O)c1ccc(CN(C)C)cc1 [compound 686, 5-cyclopropyl-N-((2R,4R)-1-(4-((dimethylamino)methyl)benzoyl)-2-methylpiperidin-4-yl)isoxazole-3-carboxamide] | 0.129 | 1.54
23 | CN(C1CCNCC1)S(=O)(=O)N1[C@@H]2CCC[C@H]1C[C@H](NC(=O)c1cc(C3CC3)on1)C2 [compound 687, 5-cyclopropyl-N-((1R,3s,5S)-9-(N-methyl-N-(piperidin-4-yl)sulfamoyl)-9-azabicyclo[3.3.1]nonan-3-yl)isoxazole-3-carboxamide] | 0.13 | 1.71
24 | C[C@@H]1CN(S(=O)(=O)CCN)[C@H](C)C[C@@H]1NC(=O)c1cc(C2CC2)on1 [compound 688, N-((2R,4S,5R)-1-((2-aminoethyl)sulfonyl)-2,5-dimethylpiperidin-4-yl)-5-cyclopropylisoxazole-3-carboxamide] | 0.131 | 0.783
25 | CC1CCCN1CCS(=O)(=O)N1[C@@H]2CC[C@H]1C[C@@H](NC(=O)c1cc(C3CC3)on1)C2 (stereo partly drawn) [compound 689, 5-cyclopropyl-N-((1R,3r,5S)-8-((2-(2-methylpyrrolidin-1-yl)ethyl)sulfonyl)-8-azabicyclo[3.2.1]octan-3-yl)isoxazole-3-carboxamide] | 0.131 | 0.764
26 | O=C(N[C@H]1C[C@H]2CC[C@@H](C1)N2S(=O)(=O)CCN1CCC(O)C1)c1cc(C2CC2)on1 (stereo partly drawn) [compound 690, 5-cyclopropyl-N-((1R,3r,5S)-8-((2-(3-hydroxypyrrolidin-1-yl)ethyl)sulfonyl)-8-azabicyclo[3.2.1]octan-3-yl)isoxazole-3-carboxamide] | 0.138 | 0.553
27 | O=C(N[C@H]1CCN(S(=O)(=O)CC2CCNCC2)[C@H](Cc2ccccc2)C1)c1cc(C2CC2)on1 [compound 691, N-((2R,4S)-2-benzyl-1-((piperidin-4-ylmethyl)sulfonyl)piperidin-4-yl)-5-cyclopropylisoxazole-3-carboxamide] | 0.144 | 1.95
28 | CC1CN(S(=O)(=O)N2[C@@H]3CC[C@H]2C[C@@H](NC(=O)c2cc(C4CC4)on2)C3)CC(C)N1 (stereo partly drawn) [compound 692, 5-cyclopropyl-N-((1R,3r,5S)-8-((3,5-dimethylpiperazin-1-yl)sulfonyl)-8-azabicyclo[3.2.1]octan-3-yl)isoxazole-3-carboxamide] | 0.148 | 0.637
